A short description of series [1]: Glycopyrrolate therapy, summary of findings of the studies. In kind it is in vivo. The source says:
Further, it is apparent that different dosages of the drug, without side-effects, are essentially equivalent in effect. […] This makes the medicament particularly suitable for the treatment of bronchospasm, or as a rescue medication.

Series [2] has as its system asthma. Particulars: single administration of metered-dose aerosol; cited from earlier work.
Series [3] concerns asthma. Particulars: inhaled; cited from earlier work.

On to `C[N+]1(C)CCC(OC(=O)C(O)(c2ccccc2)C2CCCC2)C1` (centres unmarked) [glycopyrrolate], for which, in series [1] (in vivo), the Onset of bronchodilation result was “high and immediate”. For the same compound, the Tachycardia result in series [1] (problems associated with anti-muscarinics) was “apparently absent”. In the series with asthma [2], the Period of bronchodilation is 12 h. Moreover, in the series on asthma [3], the “Duration of effective treatment” value was “up to 12 hours” and the “Duration of effective treatment, maximal” value is listed as “up to 8 hours”.

These data come from US20080020048A1, “Treatment of Respiratory Disease” (priority 2004, published 2008).
